Data on 76 compounds can be found in paper PMC12040169 (PLOS Biology, 2025).

The nature of this data set: in vitro. The following applies: human, hela cells, % viability.

For `Cc1ccc(S(=O)(=O)NCCSc2nnc(Nc3ccccc3)s2)cc1` [CBK266345], the viability at 28.5 h, 10 µM worked out at 106%.

Turning to `N#C/C(=C\c1cn(-c2ccccc2)nc1-c1cccc(S(=O)(=O)N2CCCCCC2)c1)c1nc2ccccc2c(=O)[nH]1` [CBK266347], the viability at 28.5 h, 10 µM came to 103%.

For the compound `CCOC(=O)C1=C(c2ccccc2)Nc2ncnn2C1c1cccc(OC)c1OC` (stereo not shown) [CBK266353], the viability at 28.5 h, 10 µM turned out to be 106%.

On to `Cc1ccc(C(=O)N2CCN(c3ccc(NC(=O)c4ccc(-c5cccc([N+](=O)[O-])c5)o4)cc3)CC2)cc1` [CBK266355], for which the viability at 28.5 h, 10 µM was 107%.

For the compound `O=C(O)c1[nH]nc2c1COc1ccccc1-2` [CBK266356], the viability at 28.5 h, 10 µM stood at 97.5%.

Consider `N#C/C(=C\c1cn(-c2ccccc2)nc1-c1cccc(S(=O)(=O)N2CCOCC2)c1)c1nc2ccccc2c(=O)[nH]1` [CBK266357], for which the viability at 28.5 h, 10 µM is 98.1%.

For `O=C1NC(=O)C(CCc2ccccn2)(Cc2cccc(Cl)c2Cl)C(=O)N1c1ccc(Br)cc1` (stereo not shown) [CBK266359], the viability at 28.5 h, 10 µM (bulk resorufin, single well) worked out at 94.2%.

Consider `Nn1cnnc1SC1CCCCC1NS(=O)(=O)c1ccccc1` (stereo not shown) [CBK266361], for which the viability at 28.5 h, 10 µM was 95.7%.

Take `CC(Oc1ccccc1)c1nnc(SCC(=O)Nc2ccc(Br)cc2F)n1C` (stereo not shown) [CBK266364]: the viability at 28.5 h, 10 µM was determined as 101%.

For `Cc1ccc(C)c(NC(=O)CSc2nnc(CCc3ccccc3)n2C)c1` [CBK266365], the viability at 28.5 h, 10 µM worked out at 93.7%.

Regarding `Cc1ccc(S(=O)(=O)NC(C)(C)CSc2nncn2C)cc1` [CBK266366], the viability at 28.5 h, 10 µM was 104%.

For `O=C(COc1ccc(-c2cnc3ccccc3n2)cc1)c1cccc([N+](=O)[O-])c1` [CBK266367], the viability at 28.5 h, 10 µM turned out to be 86.8%.

`O=C(O)c1c[nH]nc1-c1ccc(Br)cc1` [CBK266368]: the viability at 28.5 h, 10 µM stood at 91.5%.

As to `c1ccc(-n2nnnc2CSc2nc3ccccc3s2)cc1` [CBK266372], the viability at 28.5 h, 10 µM stood at 102%.

Turning to `COc1ccc(C(=O)Nc2ccccc2-c2nc3ccccc3s2)cc1OC` [CBK266376], the viability at 28.5 h, 10 µM came to 93.9%.

As to `O=S(=O)(NC1CCCCC1Sc1nnc(Nc2ccccc2)s1)c1ccccc1` (stereo not shown) [CBK266378], the viability at 28.5 h, 10 µM was 96.7%.

Consider `Cc1cc(C)c(S(=O)(=O)Nc2ccccc2C(=O)NCc2ccco2)c(C)c1` [CBK266382], for which the viability at 28.5 h, 10 µM was determined as 98.2%.

For `N#C/C(=C/c1ccc(-c2ccc(S(N)(=O)=O)cc2)o1)S(=O)(=O)c1ccc(Cl)cc1` [CBK266383], the viability at 28.5 h, 10 µM came out at 110%.

On to `Cc1ccc2nc(/C(C#N)=C/c3ccc(-c4ccc(S(N)(=O)=O)cc4)o3)[nH]c2c1` [CBK266386], for which the viability at 28.5 h, 10 µM turned out to be 94%.

In the case of `CC(C)(CSc1nnc(Nc2ccccc2)s1)NS(=O)(=O)c1ccc(Cl)cc1` [CBK266388], the viability at 28.5 h, 10 µM turned out to be 108%.

`CN1CCC(OC(=O)COc2ccc(Cl)cc2Cl)CC1` [CBK266389C]: the viability at 28.5 h, 10 µM is 91%.

With `O=C(CN1C(=O)c2ccccc2S1(=O)=O)Nc1ccccc1-c1ccccc1` [CBK266390], the viability at 28.5 h, 10 µM was found to be 102%.

Regarding `O=S(=O)(NC1CCCCC1n1cc(-c2ccccc2)nn1)c1ccc(Cl)cc1` (stereo not shown) [CBK266391], the viability at 28.5 h, 10 µM turned out to be 99%.

As to `COc1ccc(Cl)cc1NC(=O)CN(c1cc([N+](=O)[O-])ccc1C)S(C)(=O)=O` [CBK266394], the viability at 28.5 h, 10 µM stood at 114%.

In the case of `NC(=O)c1ccccc1NC(=O)CCSc1ccc([N+](=O)[O-])cc1Cl` [CBK266396], the viability at 28.5 h, 10 µM amounted to 80.1%.

Consider `C/C=C/c1ccc(OCCNC2CCCC2)c(OC)c1` [CBK266399G], for which the viability at 28.5 h, 10 µM was found to be 93.9%.

As to `Clc1ccc(SCCCSc2ncccn2)cc1` [CBK266400], the viability at 28.5 h, 10 µM worked out at 96.8%.

Take `Cc1ccc2c(c1)C(c1c[nH]c3ccccc13)(c1c[nH]c3ccccc13)C(=O)N2C` [CBK266401]: the viability at 28.5 h, 10 µM is 103%.

As for `Cn1cc(C(c2ccc(OCC(=O)O)cc2)c2cn(C)c3ccccc23)c2ccccc21` [CBK266403], the viability at 28.5 h, 10 µM worked out at 94.5%.

On to `CC(C)(c1ccccc1)c1ccc(OCCCCn2cncn2)cc1` [CBK266405], for which the viability at 28.5 h, 10 µM is 89.5%.

For the compound `O=C(CCSc1ccc([N+](=O)[O-])cc1Cl)Nc1ccc(Br)c2cccnc12` [CBK266407], the viability at 28.5 h, 10 µM is 86.7%.

For the compound `Cc1cccc(NC(c2ccc(C)s2)c2ccc3ccc(C)nc3c2O)n1` (stereo not shown) [CBK266408], the viability at 28.5 h, 10 µM was found to be 94.2%.

As to `CCOC(=O)c1c(NC(=O)CSc2n[nH]c(N)n2)sc(C)c1C` [CBK266412], the viability at 28.5 h, 10 µM was determined as 94.4%.

With `CCN(CC)CCN1C(=O)C(O)=C(C(=O)c2cc3ccccc3o2)C1c1ccccn1` (stereo not shown) [CBK266413], the viability at 28.5 h, 10 µM amounted to 86.1%.

Regarding `COc1cccc2cc(C(=O)C3=C(O)C(=O)N(CCN4CCOCC4)C3c3ccc(F)cc3)oc12` (stereo not shown) [CBK266414], the viability at 28.5 h, 10 µM was found to be 93.3%.

On to `Cc1cc(Cl)c(S(=O)(=O)Nc2ccc(I)cc2)cc1OCC(N)=O` [CBK266418], for which the viability at 28.5 h, 10 µM was 105%.

Consider `OCCNCc1cc(Br)ccc1OCc1ccc(F)cc1` [CBK266421C], for which the viability at 28.5 h, 10 µM came out at 96%.

With `O=C(O)CCN1C(=O)c2ccc(NC(=O)CCc3ccccc3)cc2C1=O` [CBK266422], the viability at 28.5 h, 10 µM stood at 95.2%.

In the case of `Cc1ccc(OCc2nc(C#N)c(NCCCN3CCOCC3)o2)cc1` [CBK266423], the viability at 28.5 h, 10 µM is 112%.

As to `Cc1cc(C)c(S(=O)(=O)N2CCC(C(=O)Nc3ccc(C(N)=O)cc3)CC2)c(C)c1` [CBK266424], the viability at 28.5 h, 10 µM worked out at 91.7%.

Take `Cc1ccc(-c2noc(CN3CCN(C(c4ccccc4)c4ccccc4)CC3)n2)cc1` [CBK266425]: the viability at 28.5 h, 10 µM is 96.5%.

Take `Cc1ccc(OCC(=O)Nc2ncc(C(F)(F)F)cc2Cl)c(Br)c1` [CBK266426]: the viability at 28.5 h, 10 µM stood at 95.1%.

Regarding `Brc1ccc(-n2cc(-c3ccccc3)c3c(NCc4ccccn4)ncnc32)cc1` [CBK266427], the viability at 28.5 h, 10 µM stood at 104%.

As for `COc1cc(F)ccc1S(=O)(=O)NC1CC(C)(C)NC(C)(C)C1` [CBK266428], the viability at 28.5 h, 10 µM turned out to be 112%.

Turning to `COc1cc(NC(=O)C(C)Oc2ccc(Cl)cc2C)c(C(=O)O)cc1OC` (stereo not shown) [CBK266430], the viability at 28.5 h, 10 µM was found to be 86%.

As for `COc1cc(CNC(C)(C)CO)ccc1OCc1ccc(Cl)cc1` [CBK266433C], the viability at 28.5 h, 10 µM was 92%.

As to `CC(C)(C)NS(=O)(=O)c1ccc(OCC(=O)NCc2ccncc2)cc1` [CBK266434], the viability at 28.5 h, 10 µM was 97.3%.

On to `Cc1cc(I)cnc1NC(=O)CSc1ccc(Cl)cc1` [CBK266438], for which the viability at 28.5 h, 10 µM turned out to be 94.3%.

Consider `CCCN1C(=O)c2ccc(C(=O)Nc3cc(C(=O)O)cc(C(=O)O)c3)cc2C1=O` [CBK266441], for which the viability at 28.5 h, 10 µM is 97%.

For `Cn1nnc(NC(=O)COc2ccc(C3CCCCC3)cc2)n1` [CBK266442], the viability at 28.5 h, 10 µM came out at 95.9%.

`Cc1ccccc1NS(=O)(=O)c1cc(OCC(N)=O)c(C)cc1Cl` [CBK266443]: the viability at 28.5 h, 10 µM is 85.9%.

On to `O=C(CN(c1ccc2c(c1)OCCO2)S(=O)(=O)c1ccccc1)N1CCN(Cc2ccccc2)CC1` [CBK266444], for which the viability at 28.5 h, 10 µM came out at 113%.

Turning to `Cc1ccc(S(=O)(=O)N2CCN(c3nc(NC(C)c4ccccc4)c4ccccc4n3)CC2)cc1` (stereo not shown) [CBK266448], the viability at 28.5 h, 10 µM is 106%.

For the compound `CCOC(=O)c1cnc(SCc2cccc([N+](=O)[O-])c2)nc1N` [CBK266449], the viability at 28.5 h, 10 µM was found to be 95%.

Regarding `CS(=O)(=O)N1CCN(c2ccc(NC(=O)COc3ccc4ccccc4c3)cc2)CC1` [CBK266450], the viability at 28.5 h, 10 µM was 96.8%.

Regarding `Cc1cc(Cl)c(S(=O)(=O)N2CC(C)OC(C)C2)cc1OCC(N)=O` (stereo not shown) [CBK266452], the viability at 28.5 h, 10 µM stood at 109%.

For the compound `O=C(CSc1nc2[nH]ncc2c(=O)n1-c1ccccc1)Nc1ccc(F)c(Cl)c1` [CBK266453], the viability at 28.5 h, 10 µM was found to be 97.6%.

In the case of `O=C(CC1NCCNC1=O)Nc1cccc(Cl)c1` (stereo not shown) [CBK266454], the viability at 28.5 h, 10 µM came to 105%.

For the compound `O=C(Nc1cc(Cl)ccc1C(=O)O)c1ccc2c(c1)C(=O)N(Cc1cccnc1)C2=O` [CBK266455], the viability at 28.5 h, 10 µM was found to be 89.9%.

Turning to `Cc1cc(NS(=O)(=O)c2cc(OCC(N)=O)c(C)cc2Cl)no1` [CBK266456], the viability at 28.5 h, 10 µM worked out at 103%.

Take `Cc1ccc(-c2noc(CN3CCN(c4ccccn4)CC3)n2)cc1` [CBK266457]: the viability at 28.5 h, 10 µM was determined as 95.7%.

With `COCCNS(=O)(=O)c1cc(OCC(N)=O)c(C)cc1Cl` [CBK266461], the viability at 28.5 h, 10 µM worked out at 99.3%.

Consider `Cc1cc(N2C(=O)c3ccc(Oc4ccc5c(c4)C(=O)N(c4cc(C)on4)C5=O)cc3C2=O)no1` [CBK266463], for which the viability at 28.5 h, 10 µM was determined as 85.8%.

Turning to `Cc1ccc(Nc2nc(N)nc(CSc3nnc(-c4ccncc4)o3)n2)cc1` [CBK266464], the viability at 28.5 h, 10 µM came to 97.7%.

Take `CCN(CC)CCN1C(=O)C(O)=C(C(=O)c2ccc3c(c2)OCO3)C1c1cccnc1` (stereo not shown) [CBK266465]: the viability at 28.5 h, 10 µM was 99.6%.

`Cc1ccc(Nc2nc(N)nc(CSc3nccn3C)n2)cc1` [CBK266468]: the viability at 28.5 h, 10 µM stood at 113%.

Turning to `O=C(CSc1nc2ccccc2c(=O)[nH]1)NCCO` [CBK266469], the viability at 28.5 h, 10 µM was 96.2%.

Consider `O=C(CSc1ncnc2scc(-c3ccc(Cl)cc3)c12)Nc1nsc(-c2ccccc2)n1` [CBK266473], for which the viability at 28.5 h, 10 µM amounted to 96.6%.

In the case of `COc1ccc(C(=O)C2=C(O)C(=O)N(CCN(C)C)C2c2cccc([N+](=O)[O-])c2)cc1Cl` (stereo not shown) [CBK266474], the viability at 28.5 h, 10 µM stood at 102%.

Turning to `NS(=O)(=O)c1ccc(CCNc2ncnc3c2c(-c2ccccc2)cn3-c2ccc(F)cc2)cc1` [CBK266478], the viability at 28.5 h, 10 µM amounted to 92%.

Take `COc1ccc(S(=O)(=O)NCCN2CCOCC2)c(C)c1C` [CBK266479]: the viability at 28.5 h, 10 µM amounted to 99.4%.

`Cc1cc(C)nc(NC2=NCCN2C(=S)Nc2ccccc2)n1` [CBK266481]: the viability at 28.5 h, 10 µM was 95.7%.

`Cc1ccc(OCc2nnc(SCC(=O)c3ccc(Br)cc3)n2N)cc1` [CBK266482]: the viability at 28.5 h, 10 µM was found to be 99.5%.

Regarding `O=C(CSc1ncnc2sc3c(c12)CCC3)Nc1nsc(-c2ccc(Cl)cc2)n1` [CBK266484], the viability at 28.5 h, 10 µM was 118%.

With `O=C(O)c1ccc(NCc2ccccc2OCc2ccc(F)cc2)cc1` [CBK266487], the viability at 28.5 h, 10 µM is 101%.

In the case of `COc1ccc(NC(=O)CC2NC3CCCCC3NC2=O)cc1` (stereo not shown) [CBK266488], the viability at 28.5 h, 10 µM worked out at 89.7%.

One may read the viability as a read-out of living cells in per cent, often relative to untreated cells.
